Reference: US20090181952A1 (Wyeth, priority 2008, published 2009)
Read-outs that look alike come from different tables or passages of the source.

What was measured:
[1] = metabolite profile in dog plasma by LC/MS; assay type: in vivo; conditions: dog plasma after single […] IV or 7.6 mg/kg PO dose of parent
Experimental: (§1) Rat plasma samples from single 6.7 mg/kg IV at 0, 10 min and 20.5 mg/kg IV at 0, 0.5, 4 hr post dosing; dog plasma samples from single 1.5 mg/kg IV at 0, 0.167, 1, 6 hr and 7.6 mg/kg PO at 0, 0.5, 2, 6 hr post dosing were analyzed by LC/MS. A standard of the parent compound was analyzed by LC/MS and there was no impurity detected.

[2] = metabolite profile in rat plasma by LC/MS; assay type: in vivo; conditions: rat plasma after single 6.7 or 20.5 mg/kg IV dose of parent
Experimental: as §1
In rat plasma, a compound of formula I was the predominant compound-related material while metabolites were detected at very low levels. […] (See FIGS. 1 and 2; for compound I′ n=1, R^1=methyl, and R^2═H)

rat-alpha7-nAChR = target: T1, rat-alpha7-nAChR (Rattus norvegicus, UniProt Q05941); test: functional FLIPR assay, alpha7 nAChR stably expressed in GH4C1 cells; assay type: cell-based
T1 construct: expressed in transfected cells
T1 sequence (Q05941 23-502): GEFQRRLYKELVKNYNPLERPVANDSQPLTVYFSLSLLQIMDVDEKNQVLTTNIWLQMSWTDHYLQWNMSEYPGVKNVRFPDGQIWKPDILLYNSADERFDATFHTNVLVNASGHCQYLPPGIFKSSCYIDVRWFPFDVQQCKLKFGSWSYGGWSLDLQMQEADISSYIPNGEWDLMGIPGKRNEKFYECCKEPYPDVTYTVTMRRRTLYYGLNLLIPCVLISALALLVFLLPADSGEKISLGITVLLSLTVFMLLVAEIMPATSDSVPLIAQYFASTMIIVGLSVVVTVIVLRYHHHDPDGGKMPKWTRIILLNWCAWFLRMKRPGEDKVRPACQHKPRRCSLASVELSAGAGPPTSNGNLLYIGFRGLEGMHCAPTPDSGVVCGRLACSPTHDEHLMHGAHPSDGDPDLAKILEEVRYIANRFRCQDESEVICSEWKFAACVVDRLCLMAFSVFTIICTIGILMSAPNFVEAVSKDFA

[3] = functional FLIPR primary screening assay, GH4C1 cell line expressing α7 nAChR, read-out: Alpha7 EC50

| Compound | compound-related material detected in rat plasma [2] | EC50 (rat-alpha7-nAChR; [3]) [nM] | other results |
| --- | --- | --- | --- |
| COc1ccc(C2CC(NC(=O)CCCCN3CCCNCC3)NN2)cc1 (stereo not drawn) |  | 6900 |  |
| CC(=O)N1CCCC(CCCCC(=O)Nc2cc(-c3ccc(O)cc3)[nH]n2)CC1 (stereo not drawn) |  | 1000 |  |
| C[N+]1(C)CCN(c2ccccc2)CC1 [DMPP, reference compound] |  |  | EC50 (rat-alpha7-nAChR; alpha7 nAChR stably expressed in GH4C1 cells, functional FLIPR assay, agonist validation, read-out: EC50): 980 ± 470 nM |

Now from value to compound, other results behind:

| compound-related material detected in rat plasma [2] | EC50 (rat-alpha7-nAChR; [3]) [nM] | Compound | other results |
| --- | --- | --- | --- |
| detected as metabolites |  | CC(=O)N1CCCN(CCCCC(=O)Nc2cc(-c3ccc(O)cc3)n[nH]2)CC1 [Compound I-1] | compound-related material detected in dog plasma [1]: very minor metabolite |
| detected as metabolites |  | CC(=O)N1CCCN(CCCCC(=O)Nc2cc(-c3ccc(OS(=O)(=O)O)cc3)[nH]n2)CC1 [Compound I-2] |  |
